What all share (details): stereoisomer not certain
Data set [1] in a line: RP, Waters CORTECS T3, 100 × 2.1 mm, 2.7 µm, 0.2 mL/min, estimated dead time 1.1 min; A: water + 0.045% formic acid + 0.11% ammonium hydroxide, pH 7; B: methanol; gradient (min/%B) 0/5 5/5 25/95 25.1/100 35/100 35.1/5 45/5.
Data set [2] is described as follows: RP, Waters ACQUITY UPLC BEH C18, 100 × 2.1 mm, 1.7 µm, 0.1 mL/min, estimated dead time 2.2 min; A: water + 0.045% formic acid + 0.11% ammonium hydroxide, pH 7; B: methanol; gradient (min/%B) 0/5 5/5 25/95 25.1/100 35/100 35.1/5 45/5.
Data set [3] can be described thus: HILIC, Merck SeQuant ZIC-HILIC, 150 × 2.1 mm, 5 µm, 0.75 mL/min, estimated dead time 0.44 min; A: water + 10 mM ammonium formate, pH 6; B: 5% water + 95% acetonitrile + 10 mM ammonium formate, pH 6; gradient (min/%B) 0/95 5/95 20/57 25/57 30/95 40/95.
The nature of data set [4]: HILIC, Waters XBridge BEH Amide, 100 × 2.1 mm, 2.5 µm, 0.5 mL/min, estimated dead time 0.44 min; A: water + 0.1% acetic acid + 10 mM ammonium acetate, pH 4; B: 5% water + 95% acetonitrile + 0.1% acetic acid + 10 mM ammonium acetate, pH 4; gradient (min/%B) 0/95 5/95 20/57 25/57 30/95 40/95.
Data set [5] is described as follows: RP, Waters CORTECS T3, 100 × 2.1 mm, 2.7 µm, 0.3 mL/min, estimated dead time 0.73 min; A: water + 0.1% formic acid, pH 3; B: methanol + 0.1% formic acid, pH 3; gradient (min/%B) 0/0 5/0 25/100 30/100 30.1/0 35/0.
A short description of data set [6]: RP, Waters CORTECS T3, 100 × 2.1 mm, 2.7 µm, 0.2 mL/min, estimated dead time 1.1 min; A: water + 0.1% formic acid, pH 3; B: methanol + 0.1% formic acid, pH 3; gradient (min/%B) 0/0 1/0 6/5 30/100 35/100 35.1/0 40/0.
Data set [7] in a line: RP, Waters CORTECS T3, 100 × 2.1 mm, 2.7 µm, 0.3 mL/min, estimated dead time 0.73 min; A: water + 0.1% formic acid, pH 3; B: methanol + 0.1% formic acid, pH 3; gradient (min/%B) 0/0 1/0 6/5 30/100 35/100 35.1/0 40/0.
The nature of data set [8]: RP, Waters CORTECS T3, 100 × 2.1 mm, 2.7 µm, 0.2 mL/min, estimated dead time 1.1 min; A: water + 0.1% formic acid, pH 3; B: methanol + 0.1% formic acid, pH 3; gradient (min/%B) 0/5 5/5 25/95 25.1/100 35/100 35.1/5 45/5.
Data set [9] is described as follows: RP, Waters ACQUITY UPLC BEH C18, 100 × 2.1 mm, 1.7 µm, 0.2 mL/min, estimated dead time 1.1 min; A: water + 0.1% formic acid, pH 3; B: methanol + 0.1% formic acid, pH 3; gradient (min/%B) 0/5 5/5 25/100 30/100 30.1/5 35/5.
Data set [10] can be described thus: RP, Waters ACQUITY UPLC BEH C18, 100 × 2.1 mm, 1.7 µm, 0.1 mL/min, estimated dead time 2.2 min; A: water + 0.1% formic acid, pH 3; B: methanol + 0.1% formic acid, pH 3; gradient (min/%B) 0/5 5/5 25/95 25.1/100 35/100 35.1/5 45/5.
Data set [11] in a line: HILIC, Merck SeQuant ZIC-HILIC, 150 × 2.1 mm, 5 µm, 0.75 mL/min, estimated dead time 0.44 min; A: water + 0.1% acetic acid + 10 mM ammonium acetate, pH 4; B: 5% water + 95% acetonitrile + 0.1% acetic acid + 10 mM ammonium acetate, pH 4; gradient (min/%B) 0/95 5/95 20/57 25/57 30/95 40/95.
Data set [12] can be described thus: RP, Waters CORTECS T3, 100 × 2.1 mm, 2.7 µm, 0.15 mL/min, estimated dead time 1.5 min; A: water + 0.1% formic acid, pH 3; B: methanol + 0.1% formic acid, pH 3; gradient (min/%B) 0/5 5/5 25/95 25.1/100 35/100 35.1/5 45/5.
Data set [13] is described as follows: RP, Waters CORTECS T3, 100 × 2.1 mm, 2.7 µm, 0.25 mL/min, estimated dead time 0.88 min; A: water + 0.1% formic acid, pH 3; B: methanol + 0.1% formic acid, pH 3; gradient (min/%B) 0/5 5/5 25/95 25.1/100 35/100 35.1/5 45/5.
The nature of data set [14]: RP, Waters ACQUITY UPLC BEH C18, 100 × 2.1 mm, 1.7 µm, 0.2 mL/min, estimated dead time 1.1 min; A: water + 0.025% formic acid + 20 mM ammonium acetate + 0.055% ammonium hydroxide, pH 7; B: methanol; gradient (min/%B) 0/5 5/5 25/100 30/100 30.1/5 35/5.
Data set [15] is described as follows: RP, Thermo Scientific Hypercarb, 150 × 2.1 mm, 5 µm, 0.1 mL/min, estimated dead time 3.3 min; A: water + 0.1% formic acid, pH 3; B: methanol + 0.1% formic acid, pH 3; gradient (min/%B) 0/5 5/5 20/100 35/100 35.1/5 45/5.
A short description of data set [16]: RP, Waters CORTECS T3, 100 × 2.1 mm, 2.7 µm, 0.3 mL/min, estimated dead time 0.73 min; A: water + 0.1% formic acid, pH 3; B: methanol + 0.1% formic acid, pH 3; gradient (min/%B) 0/5 5/5 25/100 30/100 30.1/5 35/5.
A short description of data set [17]: RP, Waters CORTECS T3, 100 × 2.1 mm, 2.7 µm, 0.1 mL/min, estimated dead time 2.2 min; A: water + 0.1% formic acid, pH 3; B: methanol + 0.1% formic acid, pH 3; gradient (min/%B) 0/5 5/5 25/95 25.1/100 35/100 35.1/5 45/5.
A short description of data set [18]: RP, Waters ACQUITY UPLC BEH C18, 100 × 2.1 mm, 1.7 µm, 0.1 mL/min, estimated dead time 2.2 min; A: water + 0.1% formic acid, pH 3; B: methanol + 0.1% formic acid, pH 3; gradient (min/%B) 0/5 5/5 25/100 30/100 30.1/5 35/5.

For `CCCCCCCCCCCCCCCC(=O)OCC(COP(=O)(O)OCCN)OC(=O)CCCCCCCCCCCCCCC` (racemic) [1,2-DIPALMITOYL-RAC-GLYCERO-3-PHOSPHOETHANOLAMINE], the LC retention time in data set [1] is 28.7 min; in data set [2], 36.9 min; in data set [3], 7.77 min; in data set [4], 6.05 min.

Turning to `Nc1ccn(C2CC(O)C(COP(=O)(O)O)O2)c(=O)n1` (stereo not given) [2'-DEOXYCYTIDINE 5'-MONOPHOSPHATE], the LC retention time in data set [5] was 0.89 min; in data set [6], 1.35 min; in [7], 0.92 min; in data set [8] it was 2.67 min; in data set [9], 1.38 min; in data set [10] it was 2.67 min. In addition, the LC retention time in data set [3] was 14.5 min.

For `C=CC1=C(C)C(=Cc2[nH]c(Cc3[nH]c(C=C4NC(=O)C(C)=C4C=C)c(C)c3CCC(=O)O)c(CCC(=O)O)c2C)NC1=O` [BILIRUBIN], the LC retention time in data set [1] was 24.4 min; in [2] it was 26.9 min; in data set [3] it was 1.06 min; in data set [11], 1.32 min.

Turning to `CC(CCC(=O)O)C1CCC2C3C(O)CC4CC(O)CCC4(C)C3CC(O)C12C` (stereo not given) [CHOLATE], the LC retention time in [5] is 21.9 min; in [7], 25.4 min; in data set [8], 29.8 min; in data set [12], 24.7 min; in data set [9], 22.9 min; in data set [13], 22.9 min. Further, the LC retention time in data set [14] was 19.6 min.

Regarding `Nc1ccn(C2OC(COP(=O)(O)OP(=O)(O)O)C(O)C2O)c(=O)n1` (stereo not given) [CYTIDINE 5'-DIPHOSPHATE], the LC retention time in data set [5] is 0.89 min; in [6] it was 1.35 min; in [12] it was 1.98 min.

Take `O=C([O-])[C@H](O)[C@@H](O)[C@H](O)[C@H](O)CO` [D-GLUCONATE]: the LC retention time is 2.58 min in data set [8], 13 min in data set [3], 12.9 min in [11] and 17 min in data set [4].

Take `NC(C(=O)O)C(O)C(O)C(O)CO` (stereo not given) [GLUCOSAMINATE]: the LC retention time in [8] is 2.45 min; in [15], 4.77 min; in data set [3], 14.3 min; in data set [11], 14.2 min; in [4] it was 14.7 min.

With `CCOC(OCC)C(O)COP(=O)(O)O` (stereo not given) [GLYCERALDEHYDE 3-PHOSPHATE DIETHYL ACETAL], the LC retention time is 8.23 min in data set [6]; 6.25 min in data set [7]; 12.2 min in data set [8]; 7.38 min in data set [12]; 1.41 min in [14].

Regarding `O=c1[nH]cnc2nc[nH]c12` [HYPOXANTHINE], the LC retention time in data set [16] was 1.33 min; in data set [17], 2.72 min; in data set [18], 2.8 min; in data set [14] it was 1.38 min; in [3], 3.94 min; in data set [4] it was 3.97 min.

Consider `N[C@@H](CS(=O)(=O)O)C(=O)O` [L-CYSTEIC ACID], for which the LC retention time is 2.49 min in data set [8]; 19.4 min in [15]; 13.4 min in data set [3]; 13.4 min in data set [11]; 13.4 min in [4].

As to `CC(=O)NC(CC(N)=O)C(=O)O` [N-ALPHA-ACETYL-L-ASPARAGINE], the LC retention time was 0.89 min in data set [5]; 1.35 min in [6]; 2.67 min in data set [8]; 1.38 min in data set [9]; 1.08 min in data set [13]; 2.7 min in [10]. Moreover, the LC retention time was 11.8 min in [11] and 12.1 min in [4].

As to `O=C(O)CCCCCCCCCCCO` [OMEGA-HYDROXYDODECANOIC ACID], the LC retention time in data set [7] was 22.4 min; in data set [12] it was 22.2 min; in [13] it was 20.4 min; in data set [14] it was 16.3 min; in data set [4] it was 1.1 min.

Take `O=C(O)C1(O)CC(O)C(O)C(O)C1` (stereo not given) [QUINATE]: the LC retention time in data set [5] is 0.89 min; in [6], 1.35 min; in data set [8] it was 2.64 min; in [9], 1.38 min; in data set [10] it was 2.67 min; in data set [3] it was 12.3 min. In [11], the LC retention time was 12.2 min.

With `NCCS(=O)(=O)O` [TAURINE], the LC retention time in data set [8] was 2.48 min; in data set [3] it was 12.3 min; in data set [11], 12 min; in [4], 11.4 min.

For `O=c1ccn(C2OC(COP(=O)(O)O)C(O)C2O)c(=O)[nH]1` (stereo not given) [URIDINE-5-MONOPHOSPHATE], the LC retention time in data set [5] is 0.89 min; in data set [6] it was 1.35 min; in data set [7], 0.92 min; in data set [8] it was 2.67 min; in [13], 1.08 min; in data set [10], 2.7 min. Besides, the LC retention time in data set [11] was 13.6 min; in data set [4], 14 min.

As for `O=c1ccn(C2OC(CO)C(O)C2O)c(=O)[nH]1` (stereo not given) [URIDINE], the LC retention time in [12] was 1.83 min; in data set [11], 4.54 min; in data set [4] it was 3.95 min.
